Measured values published in article PMC8472965, “BmK86-P1, a New Degradation Peptide with Desirable Thermostability and Kv1.2 Channel-Specific Activity from Traditional Chinese Scorpion Medicinal Material” (Toxins, 2021).
Positions of bridges follow the written chain, without caps; N, C: chain ends. Residues, ends and D or L forms follow the SMILES beside them.

Columns and labels:
Format in all cases: cell-based
[1] = target: T1, mKv4.1 channel (Mus musculus, UniProt Q03719); test: Whole-cell patch clamp, mKv4.1 channel overexpressed in HEK293T cells; details: 1 μM peptide, mean ± S.E., n ≥ 3, SEM
T1 construct: expressed in transfected cells; host or cells: HEK293T
T1 sequence (Q03719 1-651): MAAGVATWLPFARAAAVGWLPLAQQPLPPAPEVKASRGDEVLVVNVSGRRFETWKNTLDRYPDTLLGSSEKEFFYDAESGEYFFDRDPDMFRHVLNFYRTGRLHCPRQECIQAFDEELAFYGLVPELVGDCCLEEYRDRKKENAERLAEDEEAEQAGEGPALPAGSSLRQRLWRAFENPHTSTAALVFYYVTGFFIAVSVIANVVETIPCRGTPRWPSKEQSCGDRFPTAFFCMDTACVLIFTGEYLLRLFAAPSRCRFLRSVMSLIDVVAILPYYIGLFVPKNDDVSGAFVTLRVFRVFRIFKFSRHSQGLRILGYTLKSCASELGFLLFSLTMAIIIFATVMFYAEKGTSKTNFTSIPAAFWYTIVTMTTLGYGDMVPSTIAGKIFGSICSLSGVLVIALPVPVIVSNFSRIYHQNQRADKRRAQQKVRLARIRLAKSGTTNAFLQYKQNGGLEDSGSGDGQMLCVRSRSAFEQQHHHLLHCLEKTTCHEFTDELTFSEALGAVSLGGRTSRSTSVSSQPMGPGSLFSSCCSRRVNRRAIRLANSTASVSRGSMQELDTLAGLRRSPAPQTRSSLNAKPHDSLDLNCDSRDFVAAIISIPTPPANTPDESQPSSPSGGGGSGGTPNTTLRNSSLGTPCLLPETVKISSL
Description: (§1) To investigate the electrophysiological activities of BmK86-P1, the whole-cell patch clamp technique was applied to test the effects of BmK86-P1 on multiple potassium channels. The hKv1.1, hKv1.2, hKv1.3, hKv1.6, hKv3.2, mKv4.1, rKv4.2, rKv4.3 and hERG channels were overexpressed in HEK293T cells, then the inhibitory effects of BmK86-P1 at 1 μM on these potassium channels were measured. […] To further investigate the affinity of BmK86-P1 inhibiting the hKv1.2 channel, a dose-dependent study was performed by examining the inhibitory effects of different concentrations of BmK86-P1.
(§2) All potassium channel expression vectors were given by others or constructed by ourselves. HEK293T cells were cultured in Dulbecco’s modified Eagle medium (Gibco, Pittsburgh, PA, USA) with 10% fetal bovine serum and penicillin/streptomycin (100 units/mL) in a 5% CO2 incubator at 37 °C. […] The potassium currents were recorded after transfection for 1 to 3 days.
(§3) The channel currents were measured and recorded by whole-cell patch clamp technology according to previously published references. […] The channel currents were recorded at room temperature (~25 °C) using an EPC 10 patch clamp amplifier. […]
(§4) The ClampFit (Molecular Devices, Sunnyvale, CA, USA) and SigmaPlot software ([…], Chicago, IL, USA) were used to analyze the recorded data. […]

[2] = target: T2, hERG channel (Homo sapiens, UniProt Q12809); details: 1 μM peptide; whole-cell patch clamp, HEK293T; mean ± S.E., n ≥ 3; SEM
T2 construct: expressed in transfected cells; host or cells: HEK293T
Description: as §1, §2, §3, §4

[3] = target: T3, hKv1.2-T383V (Homo sapiens, UniProt P16389, T383V); test: Whole-cell patch clamp, hKv1.2 channel mutant T383V; details: 100 nM peptide, HEK293T, mean ± S.E., n ≥ 3, SEM
T3 construct: expressed in transfected cells; host or cells: HEK293T
Description: (§5) To determine the functional sites of the hKv1.2 channel responsible for the selectivity of BmK86-P1, six hKv1.2 mutants were obtained based on sequence differences between the pore regions of the hKv1.2 and hKv1.1 channels (Figure 4A). Then, the activities of 100 nM BmK86-P1 on these six mutant channels were tested. […] The other three mutant channels (hKv1.2-D352E, hKv1.2-R354A and hKv1.2-P359S) still kept similar sensitivities toward BmK86-P1 compared with the wild-type hKv1.2 channel (Figure 4H,I,K,N).
(§6) All potassium channel expression vectors were given by others or constructed by ourselves. HEK293T cells were cultured in Dulbecco’s modified Eagle medium (Gibco, Pittsburgh, PA, USA) with 10% fetal bovine serum and penicillin/streptomycin (100 units/mL) in a 5% CO2 incubator at 37 °C. Potassium channel expression vectors and pEGFP-N1 were co-transfected into HEK293T cells using TurboFect in vitro Transfection Reagent (Thermo Scientific, Waltham, MA, USA) according to the manufacturer’s instructions. The potassium currents were recorded after transfection for 1 to 3 days.
as §3

[4] = target: T4, hKv1.2-R354A (Homo sapiens, UniProt P16389, R354A); test: Whole-cell patch clamp, hKv1.2 channel mutant R354A; details: 100 nM peptide, HEK293T, mean ± S.E., n ≥ 3, SEM
T4 construct: expressed in transfected cells; host or cells: HEK293T
Description: as §5, §6, §3

[5] = target: T5, hKv1.2-M1 chimeric channel (Homo sapiens, UniProt P16389, D352E/P359S/Q357H/R354A/T383V/V381Y); test: Whole-cell patch clamp, chimeric channel hKv1.2-M1 (S5-S6 linker of hKv1.2 replaced by that of hKv1.1); details: 100 nM peptide, HEK293T, mean ± S.E., n ≥ 3, SEM
T5 construct: expressed in transfected cells; host or cells: HEK293T
Description: The binding interface of potassium channels for scorpion toxins is the pore region, which includes the turret and filter regions. We first investigated whether BmK86-P1 peptide binds to the pore region of the hKv1.2 channel.
as §6
The channel currents were measured and recorded by whole-cell patch clamp technology according to previously published references. The internal patch pipette solution and the bath solution were prepared as previously described. All the test peptides were dissolved into bath solution supplemented with 0.01% BSA. An MPS-2 multichannel microperfusion system (INBIO Inc., Wuhan, China) was applied to change the external recording bath solution. […] The channel currents were recorded at room temperature (~25 °C) using an EPC 10 patch clamp amplifier. […]

[6] = target: T6, hKv1.1 channel (Homo sapiens, UniProt Q09470); test: Whole-cell patch clamp, hKv1.1 channel overexpressed in HEK293T cells; details: mean ± S.E., n ≥ 3, SEM
T6 construct: expressed in transfected cells; host or cells: HEK293T
Description: as §1, §2, §3, §4

T6 sequence (Q09470 whole entry): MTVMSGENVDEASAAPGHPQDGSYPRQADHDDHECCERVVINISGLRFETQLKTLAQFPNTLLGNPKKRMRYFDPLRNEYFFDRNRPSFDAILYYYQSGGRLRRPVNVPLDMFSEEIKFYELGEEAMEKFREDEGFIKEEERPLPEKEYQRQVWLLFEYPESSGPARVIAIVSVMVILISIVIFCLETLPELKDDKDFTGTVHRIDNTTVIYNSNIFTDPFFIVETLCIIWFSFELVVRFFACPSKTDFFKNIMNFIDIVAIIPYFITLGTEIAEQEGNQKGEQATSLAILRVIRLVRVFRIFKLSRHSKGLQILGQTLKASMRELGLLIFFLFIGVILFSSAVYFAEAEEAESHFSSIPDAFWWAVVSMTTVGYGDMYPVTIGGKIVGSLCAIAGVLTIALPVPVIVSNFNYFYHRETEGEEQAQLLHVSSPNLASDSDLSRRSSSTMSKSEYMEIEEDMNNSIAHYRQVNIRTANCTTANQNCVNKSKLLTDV
T5 sequence (P16389 whole entry D352E/R354A/Q357H/P359S/V381Y/T383V): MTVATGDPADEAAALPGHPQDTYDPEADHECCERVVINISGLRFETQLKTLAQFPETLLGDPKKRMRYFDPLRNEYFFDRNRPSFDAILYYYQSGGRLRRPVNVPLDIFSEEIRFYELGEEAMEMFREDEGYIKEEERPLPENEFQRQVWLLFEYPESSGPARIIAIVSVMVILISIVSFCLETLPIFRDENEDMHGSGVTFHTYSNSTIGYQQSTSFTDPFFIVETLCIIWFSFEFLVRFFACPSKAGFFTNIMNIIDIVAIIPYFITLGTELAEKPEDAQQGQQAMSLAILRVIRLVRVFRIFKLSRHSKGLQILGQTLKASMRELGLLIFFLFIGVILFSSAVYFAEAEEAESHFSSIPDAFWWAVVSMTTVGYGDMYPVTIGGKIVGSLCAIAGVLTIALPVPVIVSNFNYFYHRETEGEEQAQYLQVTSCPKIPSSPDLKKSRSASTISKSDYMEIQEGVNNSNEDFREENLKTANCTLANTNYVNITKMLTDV
T4 sequence (P16389 whole entry R354A): as the sequence (P16389 whole entry D352E/R354A/Q357H/P359S/V381Y/T383V) above, with E352D, H357Q, S359P, Y381V, V383T counted along it
T2 sequence (Q12809 whole entry): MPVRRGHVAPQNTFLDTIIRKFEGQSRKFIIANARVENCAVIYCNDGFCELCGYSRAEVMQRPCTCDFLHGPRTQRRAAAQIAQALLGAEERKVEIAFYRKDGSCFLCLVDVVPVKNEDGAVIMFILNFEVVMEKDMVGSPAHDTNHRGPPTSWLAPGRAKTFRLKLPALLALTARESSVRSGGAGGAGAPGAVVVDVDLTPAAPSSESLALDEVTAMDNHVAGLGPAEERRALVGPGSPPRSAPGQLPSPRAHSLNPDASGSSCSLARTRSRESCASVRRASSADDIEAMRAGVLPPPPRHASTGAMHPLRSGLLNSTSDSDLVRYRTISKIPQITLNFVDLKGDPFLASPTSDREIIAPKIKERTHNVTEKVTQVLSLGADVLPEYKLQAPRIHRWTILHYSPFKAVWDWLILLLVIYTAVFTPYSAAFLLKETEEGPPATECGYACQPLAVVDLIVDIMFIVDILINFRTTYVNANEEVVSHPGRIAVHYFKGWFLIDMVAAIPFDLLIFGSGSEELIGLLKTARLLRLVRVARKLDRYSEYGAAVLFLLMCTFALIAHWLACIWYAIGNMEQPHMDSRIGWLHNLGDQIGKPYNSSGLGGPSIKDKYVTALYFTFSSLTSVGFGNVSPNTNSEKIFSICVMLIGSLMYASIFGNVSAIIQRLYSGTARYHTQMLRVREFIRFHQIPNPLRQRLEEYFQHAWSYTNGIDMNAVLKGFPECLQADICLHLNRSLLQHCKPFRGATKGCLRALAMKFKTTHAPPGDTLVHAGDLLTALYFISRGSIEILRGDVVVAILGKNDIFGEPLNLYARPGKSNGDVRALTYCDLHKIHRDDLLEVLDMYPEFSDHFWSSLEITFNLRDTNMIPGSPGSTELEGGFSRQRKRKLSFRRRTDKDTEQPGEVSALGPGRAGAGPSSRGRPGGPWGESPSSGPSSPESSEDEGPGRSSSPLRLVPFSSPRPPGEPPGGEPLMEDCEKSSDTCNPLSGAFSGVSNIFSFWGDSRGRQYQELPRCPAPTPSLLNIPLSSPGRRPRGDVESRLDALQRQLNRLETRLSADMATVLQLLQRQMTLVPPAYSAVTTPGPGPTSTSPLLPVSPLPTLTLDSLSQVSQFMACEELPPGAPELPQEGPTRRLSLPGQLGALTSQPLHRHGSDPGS
T3 sequence (P16389 whole entry T383V): as the sequence (P16389 whole entry D352E/R354A/Q357H/P359S/V381Y/T383V) above, with E352D, A354R, H357Q, S359P, Y381V counted along it

Question: What does the source list for `CC[C@H](C)[C@@H]1NC(=O)[C@@H]2CSSC[C@H](NC(=O)[C@H](C)N)C(=O)N[C@@H](CO)C(=O)N[C@@H](CCCCN)C(=O)N3CCC[C@H]3C(=O)N[C@H]3CSSC[C@H](NC(=O)[C@H](CCCNC(=N)N)NC(=O)CNC(=O)[C@H](CC(N)=O)NC1=O)C(=O)N[C@@H](Cc1c[nH]cn1)C(=O)N[C@H](C(=O)N[C@@H](Cc1ccc(O)cc1)C(=O)N[C@@H](Cc1ccc(O)cc1)C(=O)O)CSSC[C@H](NC(=O)[C@H](Cc1ccc(O)cc1)NC(=O)[C@H](CCCCN)NC(=O)[C@H](CCCNC(=N)N)NC3=O)C(=O)N[C@@H]([C@@H](C)CC)C(=O)N[C@@H](CC(=O)O)C(=O)N[C@@H](CCCCN)C(=O)NCC(=O)N[C@@H](C)C(=O)N[C@@H](CCCNC(=N)N)C(=O)N[C@@H](CC(N)=O)C(=O)NCC(=O)N[C@@H](CCCCN)C(=O)N2` [BmK86-P1] (H-ACSKPCRKYCIDKGARNGKCINGRCHCYY-OH; disulfide 2-20, 6-25, 10-27 (inferred); N-terminus and C-terminus assumed)?
Answer: inhibition of Kv4.1 channel currents [1]: 3.4 ± 1.1%; inhibition of hERG channel currents [2]: 13.3 ± 3.3%; inhibition of hKv1.2-T383V channel currents [3]: 32.1 ± 2.8%; inhibition of hKv1.2-R354A channel currents [4]: 73.3 ± 1.3%; inhibition of hKv1.2-M1 chimeric channel currents [5]: 1.0 ± 0.2%; inhibition of hKv1.1 channel currents ([6]; 100 nM peptide): 0.7 ± 0.1%; inhibition of hKv1.1 channel currents ([6]; 1 μM peptide, room temperature (~25 °C)): 4.4 ± 2.6%
